Reference: patent US20180296523A1, “USE OF POLYMETHOXYLATED FLAVONES TO AMELIORATE CIRCADIAN RHYTHM DISORDERS” (THE BOARD OF REGENTS OF THE UNIVERSITY OF TEXAS SY, priority 2017, published 2018)
“Also recorded” adds a separate entry of the source.

Assays:
[1] = system: PER2::LucSV reporter fibroblast cells; experiment: Dose response validation of reporter rhythm in PER2::LucSV cells; assay type: cell-based, mouse
Experimental: The chemical screen for circadian clock modulators was conducted at the Chemical Genomics Core facility at the UTHSC-H. The in-house chemical library screened consists of compounds from NIH Clinical Collection, NCI collection and Microsource Spectrum Collection. The screening was conducted largely based on the protocol previously described (Chen et al., 2012). […] Cells were then incubated with 5 μM forskolin for 1-2 h followed by the addition of chemical compounds to the plates with robotic arms (Beckman), and then subjected to continuous monitoring over several days in a temperature-controlled EnVision microplate reader (Perkin Elmer). Data analysis was carried out by using the MultiCycle software (Actimetrics) for measurement of period, phase, and amplitude. […] Tissue explant experiments were conducted as described previously (Chen et al., 2012).

GAL4 DBD-RORγ LBD = target: T1, GAL4 DBD-RORγ LBD (Mus musculus, UniProt P51450); experiment: Mammalian one-hybrid reporter assay in HEK293T cells, GAL4-RORγ; assay type: cell-based; conditions: ligand interaction reduces transcriptional activity
T1 construct: RORγ-LBD (aa 250-516); expressed in transfected cells; host or cells: HEK293T
T1 sequence (P51450 250-516): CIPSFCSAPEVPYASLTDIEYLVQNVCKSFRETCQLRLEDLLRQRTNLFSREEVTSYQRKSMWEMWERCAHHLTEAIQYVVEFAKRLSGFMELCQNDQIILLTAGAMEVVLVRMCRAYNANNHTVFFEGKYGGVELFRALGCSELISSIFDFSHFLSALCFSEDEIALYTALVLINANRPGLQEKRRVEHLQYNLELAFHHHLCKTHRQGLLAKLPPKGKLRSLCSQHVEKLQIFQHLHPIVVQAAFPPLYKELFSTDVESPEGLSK
Source text: (§1) Plasmids containing the retinoic acid-related orphan receptor response element (RORE) from mouse Bmal1 promoter, pcDNA3.1B-G4DBD-RORαLBD and pcDNA3.1BG4DBD-RORγLBD were constructed in our lab. Specifically, the 1960 bp sequences (−1830/+130) of the mouse Bmal1 promoter harboring either WT ([…] (SEQ ID NO:1) and […] (SEQ ID NO:2)) or mutant ([…] (SEQ ID NO:3)) RORE were PCR amplified from mouse genomic DNA and cloned into pGL3-promoter luciferase vector. For expression of RORα or RORγ-GAL4 protein, mouse RORα-LBD (aa 261-523) or RORγ-LBD (aa 250-516) were PCR amplified from mouse genomic DNA and cloned into a GAL4-DBD-containing vector, pcDNA3.1B.
(§2) For mammalian one-hybrid assays, HEK293T cells were cotransfected with pcDNA3.1B-G4DBD-RORα/γLBD, pGL4.31 and TK promoter Renilla luciferase construct (tK.pRL). To investigate the regulation of the Bmal1 reporter, Hepa1-6 cells were cotransfected with Bmal1-WT or mutant RORE reporter plasmids, RORα, RORγ or Rev-erbα expression construct along with tK.pRL. Mouse and human siRNA targeting RORα and RORγ were purchased from Santa Cruz. Transfection was performed by Lipfectamine 2000 reagent (Invitrogen) Twenty-four hours after transfection, the cells were treated with vehicle or NOB. Lysates were collected 24 h after treatment, and firefly and Renilla luciferase activities were measured by using a Dual-Luciferase Reporter System (Promega).
(§3) For radio-ligand receptor binding assays, previously described protocols with minor modifications (Kumar et al., 2010; Wang et al., 2010b) were adopted.

GAL4 DBD-RORα LBD = target: T2, GAL4 DBD-RORα LBD (Mus musculus, UniProt P51448); experiment: Mammalian one-hybrid reporter assay in HEK293T cells, GAL4-RORα; assay type: cell-based; conditions: ligand interaction reduces transcriptional activity
T2 construct: mouse RORα-LBD (aa 261-523); expressed in transfected cells; host or cells: HEK293T
T2 sequence (P51448 261-523): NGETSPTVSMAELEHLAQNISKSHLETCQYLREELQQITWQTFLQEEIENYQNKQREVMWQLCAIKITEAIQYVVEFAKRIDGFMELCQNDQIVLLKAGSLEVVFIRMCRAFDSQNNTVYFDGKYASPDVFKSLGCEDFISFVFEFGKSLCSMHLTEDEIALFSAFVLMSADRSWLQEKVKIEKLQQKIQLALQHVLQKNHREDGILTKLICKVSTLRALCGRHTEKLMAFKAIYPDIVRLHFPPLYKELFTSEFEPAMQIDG
Source text: as §1, §2, §3

RORγ-LBD = target: T3, RORγ-LBD (Homo sapiens, UniProt P51449); experiment: Radioligand receptor binding assay with 25-[3H]-OHC, RORγ-LBD; conditions: in the presence of 4.5 nM 25-[3H]-OHC
T3 sequence (P51449 269-508 limits assumed): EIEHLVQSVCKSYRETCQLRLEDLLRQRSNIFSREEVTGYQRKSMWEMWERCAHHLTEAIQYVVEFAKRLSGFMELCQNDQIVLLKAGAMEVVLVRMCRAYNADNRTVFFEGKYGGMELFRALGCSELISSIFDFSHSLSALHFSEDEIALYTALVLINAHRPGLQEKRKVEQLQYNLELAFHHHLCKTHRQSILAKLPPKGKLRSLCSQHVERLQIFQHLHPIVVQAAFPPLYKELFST
Experimental: Ligand binding was determined by filter binding assays to calculate the Kd value. […] Ki was determined using the Cheng-Prusoff equation.

[2] = system: peripheral tissue explants from PER2::Luc reporter mice; experiment: PER2::Luc reporter rhythms in peripheral tissue explants; assay type: cell-based, mouse
Experimental: (§4) The chemical screen for circadian clock modulators was conducted at the Chemical Genomics Core facility at the UTHSC-H. The in-house chemical library screened consists of compounds from NIH Clinical Collection, NCI collection and Microsource Spectrum Collection. The screening was conducted largely based on the protocol previously described (Chen et al., 2012). Briefly, 15,000 immortalized fibroblast cells from Clock^Δ19/+ heterozygous mice expressing the PER2::Luc bioluminescence reporter were plated into each well of 96-well plates, and incubated for 3-4 d to allow growth to confluency. Cells were then incubated with 5 μM forskolin for 1-2 h followed by the addition of chemical compounds to the plates with robotic arms (Beckman), and then subjected to continuous monitoring over several days in a temperature-controlled EnVision microplate reader (Perkin Elmer). Data analysis was carried out by using the MultiCycle software (Actimetrics) for measurement of period, phase, and amplitude. […] NOB and a structurally related analog Naringin (NAR) were re-ordered from commercial sources including Sigma and GenDEPOT and dose response validation was conducted using PER2::LucSV reporter fibroblast cells which express stronger bioluminescence signals and thus allow precise measurements of circadian clock effects of compounds (Chen et al., 2012). Tissue explant experiments were conducted as described previously (Chen et al., 2012).

[3] = system: SCN explants from PER2::Luc WT reporter mice; experiment: PER2::Luc reporter rhythms in SCN explants; assay type: cell-based, mouse; conditions: listed as NOB
Experimental: as §4, with “Tissue explant experiments were conducted as described previously (Chen et al., 2012).” left out

[4] = other studies (Kumar et al., 2012; Singh et al., 2011); cited from earlier work

| SMILES | reporter luminescence ([1]; PER2::LucSV reporter cells) | activity on GAL4-RORγ chimeric receptor (GAL4 DBD-RORγ LBD) | activity on GAL4-RORα chimeric receptor (GAL4 DBD-RORα LBD) | competitive binding to RORγ-LBD (RORγ-LBD) | reporter rhythm in pituitary explants ([2]; PER2::Luc Clock^Δ19/+ reporter mice) | reporter rhythm in liver explant ([2]; PER2::Luc WT reporter mice) | reporter rhythm in lung explant ([2]; PER2::Luc WT reporter mice) | reporter rhythm in pituitary explants ([2]; PER2::Luc WT reporter mice) | PER2::Luc reporter rhythms in peripheral tissue explants ([2]; from both Clock^Δ19/+ and WT reporter knockin mice) | amplitude of PER2::LucSV reporter rhythm [1] | period of PER2::LucSV reporter rhythm [1] | EC50 ([1]; Mus musculus, Fibroblast, PER2::LucSV reporter rhythm, read-out: estimated half maximal effective concentration) | reporter rhythms in SCN explants [3] | NOB levels 24 hr after administration [4] |
| --- | --- | --- | --- | --- | --- | --- | --- | --- | --- | --- | --- | --- | --- | --- |
| C[C@@H]1O[C@@H](O[C@H]2[C@H](Oc3cc(O)c4c(c3)O[C@H](c3ccc(O)cc3)CC4=O)O[C@H](CO)[C@@H](O)[C@@H]2O)[C@H](O)[C@H](O)[C@H]1O [naringin, reference compound] | did not enhance the reporter luminescence | no activities | no activities | markedly diminished binding |  |  |  |  |  |  |  |  |  |  |
| COc1ccc(-c2cc(=O)c3c(OC)c(OC)c(OC)c(OC)c3o2)cc1OC [nobiletin] |  | robust activities | robust activities | direct binding; also recorded: robust competitive binding | Clock-enhancing effects | Clock-enhancing effects | Clock-enhancing effects | Clock-enhancing effects | enhanced PER2::Luc reporter rhythms | robustly enhanced the amplitude | lengthened the period in a dose-dependent manner | < 5 µM | did not enhance reporter rhythms | able to measure NOB levels 24 hr after administration |
